The numbers were not newly measured in article PMC6198970, “Safety, efficacy, and dose response of the maturation inhibitor GSK3532795 (formerly known as BMS-955176) plus tenofovir/emtricitabine once daily in treatment-naive HIV-1-infected adults: Week 24 primary analysis from a randomized Phase IIb trial” (PLoS ONE, 2018), which cites them from elsewhere.

SMILES strings stand for the structures. pEC50: −log10 of the molar value. Like-named read-outs stand apart in the source and are kept apart here. Where only a bound is given, the exact number is not on record here.

For data set [1] the following is noted: 10 mg/kg/day; ref protocol Section 1.4.1.2; cited from earlier work.
Data set [2] relates to 23 isolates of subtype C viruses. Details: method as in protocol Section 1.4.1.2. As to conditions: 23 subtype C isolates; ref protocol Section 1.4.1.2; read-out: EC50, median; cited from earlier work.
On the set-up of data set [3]: method as in AI468001 and AI468002. As to conditions: same doses and formulation; ref AI468001 and AI468002; listed as BMS-955176; cited from earlier work.
Details of data set [4]: method as in protocol Section 1.4.1.2. The following applies: ref protocol Section 1.4.1.2; cited from earlier work.
The subject of data set [5] is HIV-1 with A364V or V362I plus secondary changes. Details: method as in protocol Section 1.4.1.2. As to conditions: ref protocol Section 1.4.1.2, cited from earlier work.
The test system of data set [6] is mouse P-glycoprotein (P-gp). As to conditions: higher bioavailability in P-gp knock-out mice / with elacridar; ref protocol Section 1.4.1.2; cited from earlier work.
Data set [7] has as its system P-gp. On the set-up: method as in protocol Section 1.4.1.2. As to conditions: ref protocol Section 1.4.1.2; cited from earlier work.
For data set [8], the system named is human immunodeficiency virus type-2 (HIV-2) isolates. On the set-up: method as in protocol Section 1.4.1.2. As to conditions: active against 1 of 3 HIV-2 isolates; ref protocol Section 1.4.1.2; cited from earlier work.
Data set [9] relates to HIV-1. As to conditions: 40% HS supplemented with additional human serum albumin; ref protocol Section 1.4.1.2; cited from earlier work.
In data set [10] the test system is HIV-1. On the set-up: method as in protocol Section 1.4.1.2. The following applies: with representative drugs from NRTI, NNRTI, PI, and INI classes; ref protocol Section 1.4.1.2; cited from earlier work.
For data set [11] the following is noted: ref protocol Section 1.4.1.2, cited from earlier work.
The subject of data set [12] is HIV-1 protease. On the set-up: method as in protocol Section 1.4.1.2. The following applies: ref protocol Section 1.4.1.2; cited from earlier work.

One may read the pEC50 as −log10 of the EC50, conventionally taken in molar units. As a reminder, the NOAEL is the highest dose or exposure tested at which no adverse effect was seen. Consider `C=C(C)[C@@H]1CC[C@]2(NCCN3CCS(=O)(=O)CC3)CC[C@]3(C)[C@H](CC[C@@H]4[C@@]5(C)CC=C(c6ccc(C(=O)O)cc6)C(C)(C)[C@@H]5CC[C@]43C)[C@@H]12` [GSK3532795], for which the “AUC at lowest dose with effects” value in data set [1] is listed as 71 gh/mL; in [11] (3 mg/kg/day), 135 gh/mL. Further, the pEC50 was 8.25 in [2]; 7.60 in [5] (V362I plus secondary change-containing viruses, read-out: EC50, median); 7.82 in data set [8]. For the same compound, in data set [3], the “Exposures lower in HIV-1-infected subjects compared to healthy subjects” value is 35%. For the same compound, the Route of elimination result in [4] was “eliminated principally via metabolism followed by excretion in bile with little renal excretion”. Further, the Tissue distribution entry in [4] is “distributed preferentially into the duodenum, liver, and lymph nodes with little penetration into the brain”. The Loss of susceptibility in [5] (virus with the A364V change) is on record as greater than 100 fold. In addition, the P-gp substrate status entry in data set [6] is reported as “substrate of mouse P-glycoprotein (P-gp)”. In data set [7], the P-gp inhibition entry was “No P-gp inhibition”. In addition, in data set [9], the “Reduction of antiviral activity” value is on record as “approximately 4 fold”. Further, the “Effect of 2-drug combinations” value in data set [10] is on record as “additive to synergistic effects”. Also, in [11] (1 mg/kg/day), the “AUC at NOAEL” value is reported as 64.9 gh/mL. Further, in data set [11] (dog 9-month, stomach histologic changes), the NOAEL is 1 mg/kg/day. Moreover, in data set [12], the “Direct inhibition of HIV-1 protease” value was “does not directly inhibit HIV-1 protease”.
